{"source": "patent US20070254891A1", "about": "“Crystalline forms of 4-(2-fluorophenyl)-6-methyl-2-(piperazin-1-yl)thieno[2,3-d]pyrimidine” (Dynogen Pharmaceuticals, Inc., priority 2006, published 2007)", "key": {"[1]": {"system": "stress-induced accelerated colonic transit", "assay": "Water avoidance stress (WAS) model of increased colonic transit, fecal pellet output", "assay_type": "in vivo, rat", "from_the_text": "At the end of the 1-hour stress period, the fecal pellets were counted and recorded. WAS causes an acceleration of colonic transit, which can be quantified by counting the number of fecal pellets, produced during the stress procedure. Rats were placed for 1-hour into a stress chamber onto a raised platform 7.5 cm×7.5 cm×9 cm (L×W×H) in the center of a stress chamber filled with room temperature water 8 cm in depth. The stress chamber was constructed from a rectangular plastic tub (40.2×60.2×31.2 cm). […] Ondansetron was supplied from APIN Chemicals LTD. […] MCI-225 was provided by Mitsubishi Pharma Corp. All drugs were dissolved in a vehicle of 100% propylene glycol (1,2-propanediol) by sonicating for a period of 10 minutes. Propylene glycol was obtained from Sigma Chemical Co. […] All drugs and the vehicle were administered as an i.p. injection in a volume of 0.2 mL."}, "[2]": {"system": "acetic acid-induced colonic hypersensitivity", "assay": "Visceromotor response to colorectal distension in acetic acid-sensitized rats", "description": "The visceromotor behavioral response to colorectal distension was measured by counting the number of abdominal contractions recorded by a strain gauge sutured onto the abdominal musculature as described in Gunter et al., Physiol. […] A 5 cm latex balloon catheter inserted via the anal canal into the colon was used for colorectal distensions. Constant pressure tonic distensions were performed in a graded manner (15, 30 or 60 mmHg) and were maintained for a period of 10 min and the numbers of abdominal muscle contractions were recorded to measure the level of colonic sensation. A 10 min recovery was allowed between distensions.\nJ. Physiol. […] In the present study, a low concentration of acetic acid (1.5 ml, 0.6%) was administered intracolonically to sensitize the colon without causing histological damage to the colonic mucosa as described in previous studies (Gunter et al., supra).\nInjection volume was 0.2 mL using 100% propylene glycol as the vehicle. Three consecutive colorectal distensions at 15, 30 or 60 mmHg applied at 10-min intervals were recorded. Visceromotor responses were evaluated as the number of abdominal muscle contractions recorded during the 10-min periods of colorectal distension.\nAdult male rats were used in the study. […] Specifically, rats were anesthetized with Isoflurane (2%) and were instrumented with a strain gauge force transducer for recording of abdominal muscle contractions. A latex balloon and catheter were inserted 11 cm into the colon. The animals were allowed a 30-min period to completely recover from the anesthesia and were then subjected to intracolonic infusion of acetic acid (1.5 mL, 0.6%). An additional 30-min period was allowed for sensitization of the colon. […] The protocol for colorectal distension was initiated 30-min post drug administration. After a basal reading of the number of abdominal contractions with the balloon inserted but not distended, three consecutive 10-min lasting colorectal distensions at 15, 30, and 60 mmHg were applied at 10-min intervals. Colorectal sensitivity was evaluated by counting the number of reflex abdominal contractions (i.e. the visceromotor response) observed within each distension period.\nThe visceromotor behavioral response to colorectal distension was measured by counting the number of abdominal contractions recorded by a strain gauge sutured onto the abdominal musculature as previously described Gunter et al., referenced above. Colorectal distensions were carried out utilizing a 5 cm latex balloon catheter inserted into the colon via the anal canal. Constant pressure tonic distensions were performed in a graded manner, i.e., the pressure was increased to the desired level of 15, 30, or 60 mmHg and then maintained for a period of 10 minutes during which the number of abdominal contractions were recorded to measure the level of colonic sensation. Ten minute recovery periods were allowed following each distension."}, "small intestinal transit": {"system": "small intestinal transit", "assay": "Small Intestinal Transit Rodent Model (charcoal meal)", "assay_type": "in vivo, rat", "conditions": "for Small intestinal transit, Mean (% of total length): 15 min test period", "description": "Following an overnight fast, rats were brought to the laboratory in their home cages and received an i.p. injection of one of the following: […] Control rats received no treatment. The treated rats were placed back in the home cages and after 30 min, were fed a 2 mL charcoal meal via an oral gavage. Small intestinal transit was measured following 15 min test-period. Each rat was placed briefly in a glass chamber with IsoFlo for anesthesia and sacrificed. The stomach and the small intestine were removed and the total length of the small intestine was measured. Transit was then measured as the distance that the charcoal meal had traveled along the small intestine and expressed as % of the total length. Animals were randomly assigned to experimental groups and experiments were performed as illustrated in Table 11. Small intestinal transit in rats was investigated by the passage of a charcoal meal along the small intestine during a defined time period (15-min). The animals were deprived of food for 12-16 hrs prior to the experiments. Rats were given a charcoal meal (a mixture of charcoal, gum arabic, and distilled water) as a 2 mL oral gavage and were sacrificed after a 15-min test period. The distance traveled by the charcoal meal was quantified as a percent of the small intestinal length, using the following equation: Transit (%)=cm traveled by meal/cm total small intestinal length×100 […]"}, "[3]": {"system": "retching and vomiting induced by cisplatin", "assay": "Cisplatin-induced emesis in the ferret", "assay_type": "in vivo, ferret (Mustela putorius furo)", "description": "Following administration of the cisplatin and either MCI-225, ondansetron or vehicle alone, the occurrence of retching and vomiting was monitored for a period of 6 hours. […] Vomiting was defined as the forceful oral expulsion of upper gastrointestinal contents. The latency of the retching or vomiting response and the number of episodes were recorded for each animal and summarized for each experimental group (Wright et al., Infect. […] Following one hour of acclimation to the observation cage, ferrets received an intraperitoneal (i.p.) injection of cisplatin (5 mg/kg in 5 mL) followed in about 2 minutes by i.p. injection of a single dose of MCI-225 or ondansetron (Rudd and Naylor, Eur. J. Pharmacol., 322: 79-82 (1997)). […] Each animal received a single-dose drug treatment. In addition, three animals received an initial dose (30 mg/kg i.p.) and a second MCI-225 injection (30 mg/kg i.p.) 180 minutes following the initial dose. […] All groups were randomized."}}, "data": [{"smiles": "CNCCC(Oc1ccccc1OC)c1ccccc1", "note": "(stereo not drawn) [Nisoxetine]", "values": [{"measurement": "WAS-induced fecal pellet output during 1 hour", "setting": "[1]; 3, 10 or 30 mg/kg i.p.", "value": "reduced by all doses"}, {"measurement": "Fecal pellets produced during WAS compared to the vehicle treated group", "setting": "[1]; 10 and 30 mg/kg i.p.", "value": "significantly fewer"}, {"measurement": "Behavior in the home cage during the experiments", "setting": "[2]; 30 mg/kg i.p.", "value": "increased exploratory behavior"}, {"measurement": "Visceromotor response to colorectal distension", "setting": "[2]; 3, 10 or 30 mg/kg i.p.", "value": "no significant effect"}, {"measurement": "Small intestinal transit, Mean (% of total length)", "setting": "small intestinal transit; 3 mg/kg i.p.", "value": 40.3, "unit": "%"}, {"measurement": "Small intestinal transit, Mean (% of total length)", "setting": "small intestinal transit; 10 mg/kg i.p.", "value": 38.6, "unit": "%"}, {"measurement": "Charcoal meal completely retained in the stomach", "setting": "small intestinal transit; 30 mg/kg i.p.", "value": "4 out of 5"}, {"measurement": "Effect on small intestinal transit", "setting": "small intestinal transit; 30 mg/kg i.p.", "value": "almost completely inhibited the transit"}, {"measurement": "Small intestinal transit, Mean (% of total length)", "setting": "small intestinal transit; 30 mg/kg i.p.", "value": 4.7, "unit": "%"}, {"measurement": "Effect on small intestinal transit", "setting": "small intestinal transit; 3 or 10 mg/kg i.p.", "value": "tendency to decrease"}]}, {"smiles": "Cc1nccn1CC1CCc2c(c3ccccc3n2C)C1=O", "note": "(stereo not drawn) [Ondansetron, reference compound]", "values": [{"measurement": "Number of emetic events induced by cisplatin", "setting": "[3]; 5 mg/kg and 10 mg/kg i.p.", "value": "dose-dependently reduced"}, {"measurement": "Latency", "setting": "[3]; 5 mg/kg i.p.", "value": "288 ± 4", "unit": "min"}, {"measurement": "Retches (360 min)", "setting": "[3]; 5 mg/kg i.p.", "value": "11.2 ± 7.0"}, {"measurement": "Total Events", "setting": "[3]; 5 mg/kg i.p.", "value": "11.5 ± 7.2"}, {"measurement": "Vomits (360 min)", "setting": "[3]; 5 mg/kg i.p.", "value": "0.3 ± 0.2"}, {"measurement": "Latency", "setting": "[3]; 10 mg/kg i.p.", "value": "313 ± 32", "unit": "min"}, {"measurement": "Retches (360 min)", "setting": "[3]; 10 mg/kg i.p.", "value": "2.4 ± 1.6"}, {"measurement": "Total Events", "setting": "[3]; 10 mg/kg i.p.", "value": "2.4 ± 1.6"}, {"measurement": "Vomits (360 min)", "setting": "[3]; 10 mg/kg i.p.", "value": "0.0 ± 0.0"}, {"measurement": "Stress-induced fecal pellet output during 1 hour of WAS", "setting": "[1]; 1, 5 and 10 mg/kg i.p.", "value": "dose-dependent inhibition"}, {"measurement": "Responses to moderate (30 mmHg) and high (60 mmHg) intraluminal pressure", "setting": "[2]; 10 mg/kg i.p.", "value": "did not abolish the responses"}, {"measurement": "Behavioral activity of the rats", "setting": "[2]; 1, 5 or 10 mg/kg i.p.", "value": "No significant changes"}, {"measurement": "Number of abdominal contractions (visceromotor response)", "setting": "[2]; 1, 5 or 10 mg/kg i.p., 15, 30, 60 mmHg", "value": "dose-dependent decrease"}, {"measurement": "Small intestinal transit, Mean (% of total length)", "setting": "small intestinal transit; 1 mg/kg i.p.", "value": 27.6, "unit": "%"}, {"measurement": "Small intestinal transit, Mean (% of total length)", "setting": "small intestinal transit; 5 mg/kg i.p.", "value": 32.1, "unit": "%"}, {"measurement": "Small intestinal transit, Mean (% of total length)", "setting": "small intestinal transit; 10 mg/kg i.p.", "value": 18.4, "unit": "%"}, {"measurement": "Effect on small intestinal transit", "setting": "small intestinal transit; 1, 5 or 10 mg/kg i.p.", "value": "significant reduction"}]}]}
